Measurements reported in publication PMC4682037, “Signal transduction in light–oxygen–voltage receptors lacking the adduct-forming cysteine residue” (Nature Communications, 2015).

How the values were obtained:
[1] = target: T1, VVD-III (VVD Δ36, C108A:M135I:M165I) (Neurospora crassa, UniProt Q9C3Y6, C108A/M135I/M165I/Q182L); experiment: photoreduction, SEC; assay type: binding; settings: flavin bound on purification; 448-nm laser 30 mW, 50 mM Hepes pH 8, 150 mM NaCl
T1 construct: lacks the first 36 residues, C108A/M135I/M165I, pET28a, Ni:NTA purified from E. coli BL21(DE3)

[2] = target: T2, BAT-LOV* (Halorubrum hochstenium, UniProt M0FIW0); experiment: reconstitution with excess flavin, absorption spectroscopy, SEC; assay type: binding; settings: incubated at least 12 h in 0.5 M NaCl, unbound flavin removed by 10 kDa filter
T2 construct: gene C467_03291; isolated LOV* domain, residues 141-275, synthetic gene, N-terminal His6 tag (pET28a), E. coli BL21(DE3), endogenous flavin removed by Q XL, monomer; full-length protein also has receiver, GAF and HTH modules

[3] = target: T3, VVD-III (VVD Δ36, C108A:M135I:M165I) (Neurospora crassa, UniProt Q9C3Y6, Y40E/C108A/M135I/M165I); experiment: photoreduction, SEC; assay type: binding; settings: flavin bound on purification; 448-nm laser 30 mW, 50 mM Hepes pH 8, 150 mM NaCl
T3 construct: lacks the first 36 residues, C108A/M135I/M165I, pET28a, Ni:NTA purified from E. coli BL21(DE3)

[4] = target: T4, BAT-LOV* (Halorubrum hochstenium, UniProt M0FIW0, P188C); experiment: photoreduction by absorption spectroscopy; assay type: binding; settings: 448-nm laser; flavin presumably FAD as for the wild type
T4 construct: gene C467_03291; isolated LOV* domain, residues 141-275, synthetic gene, N-terminal His6 tag (pET28a), E. coli BL21(DE3), endogenous flavin removed by Q XL, monomer; full-length protein also has receiver, GAF and HTH modules

[5] = target: T5, BAT-LOV* (Halorubrum hochstenium, UniProt M0FIW0, Y163F/W172F/Y247F); experiment: FAD reconstitution, photoreduction by absorption spectroscopy, SEC; assay type: binding; settings: BAT-III; 448-nm laser
T5 construct: gene C467_03291; isolated LOV* domain, residues 141-275, synthetic gene, N-terminal His6 tag (pET28a), E. coli BL21(DE3), endogenous flavin removed by Q XL, monomer; full-length protein also has receiver, GAF and HTH modules

[6] = target: T2, BAT-LOV*; experiment: reconstitution with excess flavin, absorption spectroscopy; assay type: binding; settings: incubated at least 12 h in 0.5 M NaCl, unbound flavin removed by 10 kDa filter
[7] = target: the molecule itself; experiment: SEC; VVD-III as purified from E. coli passed through a SEC column; flavin redox states separate; blue-coloured, NSQ-containing protein

T2 sequence (M0FIW0 entry or part of it): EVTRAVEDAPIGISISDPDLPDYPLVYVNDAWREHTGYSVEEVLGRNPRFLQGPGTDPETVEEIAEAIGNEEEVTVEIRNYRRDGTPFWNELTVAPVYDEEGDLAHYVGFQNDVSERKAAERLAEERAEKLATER
T3 sequence (Q9C3Y6 entry or part of it Y40E/C108A/M135I/M165I): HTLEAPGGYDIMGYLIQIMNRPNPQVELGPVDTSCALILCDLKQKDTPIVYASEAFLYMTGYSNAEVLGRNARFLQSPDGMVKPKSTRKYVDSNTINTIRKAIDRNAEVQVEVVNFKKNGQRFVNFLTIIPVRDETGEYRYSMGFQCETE
T1 sequence (Q9C3Y6 entry or part of it C108A/M135I/M165I/Q182L): as the sequence (Q9C3Y6 entry or part of it Y40E/C108A/M135I/M165I) above, with E4Y, Q146L counted along it
T4 sequence (M0FIW0 entry or part of it P188C): as the sequence (M0FIW0 entry or part of it) above, with P48C counted along it
T5 sequence (M0FIW0 entry or part of it Y163F/W172F/Y247F): as the sequence (M0FIW0 entry or part of it) above, with Y23F, W32F, Y107F counted along it

In the case of Cc1cc2nc3c(=O)[nH]c(=O)nc-3n(C[C@H](O)[C@H](O)[C@H](O)COP(=O)(O)OP(=O)(O)OC[C@H]3O[C@@H](n4cnc5c(N)ncnc54)[C@H](O)[C@@H]3O)c2cc1C [FAD], the “photoreduction, SEC” value [1] is reported as “Substituting the conserved Gln182 that interacts with flavin N5 to Leu”, the “reconstitution with excess flavin, absorption spectroscopy, SEC” value ([2]; flavin-free protein elutes in extended conformation) is reported as “could be reconstituted with either FAD, FMN or riboflavin after incubation with excess cofactor” and the “photoreduction, SEC” value [3] is reported as “both the light-adapted NSQ and dark-adapted oxidized quinone states elute from SEC as monomers”. For the same molecule, the “photoreduction by absorption spectroscopy” value [4] was “BAT P188C photoreduces to the HQ with little NSQ intermediate” and the “FAD reconstitution, photoreduction by absorption spectroscopy, SEC” value [5] was “recombinantly expressed, FAD-reconstituted (a) BAT-LOV* and (b) BAT-III (Y163F:W172F:Y247F)”.

With Cc1cc2nc3c(=O)[nH]c(=O)nc-3n(C[C@H](O)[C@H](O)[C@H](O)COP(=O)(O)O)c2cc1C [FMN] the “reconstitution with excess flavin, absorption spectroscopy, SEC” value [2] was “could be reconstituted with either FAD, FMN or riboflavin after incubation with excess cofactor”.

In the case of Cc1cc2nc3c(=O)[nH]c(=O)nc-3n(C[C@H](O)[C@H](O)[C@H](O)CO)c2cc1C [riboflavin], the “reconstitution with excess flavin, absorption spectroscopy” value [6] is reported as “could be reconstituted with either FAD, FMN or riboflavin after incubation with excess cofactor”.

B1: VVD-III (VVD Δ36, C108A:M135I:M165I) (domain or fragment, Neurospora, UniProt Q9C3Y6 37-186, looked up)
chain: HTLYAPGGYDIMGYLIQIMNRPNPQVELGPVDTSCALILCDLKQKDTPIVYASEAFLYMTGYSNAEVLGRNARFLQSPDGMVKPKSTRKYVDSNTINTIRKAIDRNAEVQVEVVNFKKNGQRFVNFLTIIPVRDETGEYRYSMGFQCETE
notes: Vivid (VVD), LOV photoreceptor of Neurospora; lacks the first 36 N-terminal residues; C108A, M135I, M165I; Dark-adapted: oxidized quinone; light-adapted: neutral semiquinone (NSQ); also called Vivid; source: E. coli BL21(DE3), purified (Ni:NTA, SEC)
With B1 the “stoichiometry N” value [7] was 2.
